This assay concerns the target T1, rat FAAH (Rattus norvegicus, UniProt P97612).
T1 construct: encoding for amino acids 32-579 and an N-terminal His-tag; His-tag (N); made in house; host or cells: E. coli BL21 (DE3)
T1 sequence (P97612 32-579): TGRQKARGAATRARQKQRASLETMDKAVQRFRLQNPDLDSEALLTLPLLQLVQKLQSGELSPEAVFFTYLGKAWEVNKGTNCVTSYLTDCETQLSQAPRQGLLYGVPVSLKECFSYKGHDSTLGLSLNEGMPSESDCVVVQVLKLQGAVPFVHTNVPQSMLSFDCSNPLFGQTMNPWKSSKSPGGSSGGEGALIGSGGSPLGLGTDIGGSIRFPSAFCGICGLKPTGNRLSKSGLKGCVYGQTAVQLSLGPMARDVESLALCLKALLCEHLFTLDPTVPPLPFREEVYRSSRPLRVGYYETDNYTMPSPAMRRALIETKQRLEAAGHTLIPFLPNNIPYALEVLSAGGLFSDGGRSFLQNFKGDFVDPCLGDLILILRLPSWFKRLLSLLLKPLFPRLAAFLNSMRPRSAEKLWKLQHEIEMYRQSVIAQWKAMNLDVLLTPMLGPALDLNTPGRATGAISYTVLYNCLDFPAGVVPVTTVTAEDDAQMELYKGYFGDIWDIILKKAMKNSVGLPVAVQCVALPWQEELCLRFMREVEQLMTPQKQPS
In words: Ki determination, rat FAAH (AMC-arachidonoyl amide hydrolysis, fluorescence end point). It is filed as biochemical. Particulars: rFAAH 6 nM, substrate 20 μM, 30 min preincubation, 4 hours at room temperature. The procedure:
An N-terminal transmembrane domain deleted rat FAAH (rFAAH) was cloned as described in Patricelli et al., Biochemistry (1998) 37:15177-15187, encoding for amino acids 32-579 and an N-terminal His-tag, herein referred to as rFAAH. E. coli BL21 (DE3) were transformed according to manufacturer protocols (Invitrogen) and rFAAH was expressed and purified from a modified procedure described in Patricelli et al., 1998.
Briefly, 8 L of cells were cultured to an OD600nm of 0.6 at 37° C., and FAAH expression induced by 1 mM IPTG, followed by 4 hours of growth. Cells were pelleted by centrifugation at 5000×g to generate the cell paste. […]
Soluble rFAAH was purified from the supernatant using nickel (Ni), heparin and size exclusion chromatography (SEC) columns. […] Eluted samples were pooled, concentrated to ˜5 mg/mL and final rFAAH concentrations determined by measuring the absorbance at 280 nm, using an extinction coefficient of ϵ=60850 M^−1 cm^−1. […]
The Ki of a test compound was determined for rat and human FAAH by measuring the dose dependent inhibition of AMC-Arachidonoyl amide hydrolysis as an end point read. Assays were carried out in Corning COSTAR® 384 well flat black bottom microtiter plates (Catalog #3654) and monitored in an Envision 2100 multilabel plate reader (Perkin Elmer-Wallac), with a 355 nm (40 nm band pass) excitation filter and 460 nm (25 nm bandpass) emission filter. […]

The Ki is the equilibrium dissociation constant of an inhibitor or competing ligand from its target. In turn, `OB(O)c1ccc(-c2ccc(B(O)O)c(F)c2)cc1F` [IMP-4] registered a Ki of 5.1 nM.
